Test results as given in patent US5763492A, “Methods for effecting memory enhancement mediated by non-steroidal sulfatase inhibitors” (Duguesne University of the Holy Ghost, priority 1996, dated 1998).
Several values for one entry are separate records, joined by “and”; a condition that tells them apart may be missing. Identical values can stand only once. Counter-ions that a name gives are not always drawn.

Legend:
Format in all cases: in vivo, rat
liver sulfatase = assay: Liver sulfatase activity after IP dosing of rats; conditions: for % Inhibition of liver sulfatase / Liver Sulfatase Activity: 30 mg/kg IP; for Liver Sulfatase Activity: mean ± SEM, P<0.01 vs control, corn oil control 164.10 ± 2.5
Experimental: (§1) DU-14 was tested for its sulfatase inhibition in rats. 30 mg/kg of the compound was administered to rats IP for 15 days. Sulfatase inhibition was measured by the sulfatase activity in ng E1 S/μg protein/hr in the liver and brain as determined by methods known in the art. The results are presented below in Tables 1 and 2.

brain sulfatase = assay: Brain sulfatase activity after IP dosing of rats; conditions: 30 mg/kg IP; for Brain Sulfatase Activity: mean ± SEM, P<0.01 vs control, corn oil control 3.24 ± 0.32
Experimental: as §1

[1] = tested on: scopolamine-induced amnesia in rats; assay: Passive avoidance test (Gemini Avoidance System), crossover latency, scopolamine-induced amnesia

`CCCCCCCCCCCCCC(=O)NCCc1ccc(OS(N)(=O)=O)cc1` [DU-14] was tested, and the “% Inhibition of liver sulfatase” value (liver sulfatase; 1 Day) was 95.2%, the “Liver Sulfatase Activity” value (liver sulfatase; 1 Day) was 7.85 ± 0.65 ng E1 S/μg protein/hr and the “% Inhibition of liver sulfatase” value (liver sulfatase; 15 Days, 30 mg/kg) was 97.6% and ~98%. For the same molecule, the “Liver Sulfatase Activity” value (liver sulfatase; 15 Days) was 4.01 ± 0.23 ng E1 S/μg protein/hr, the “liver sulfatase after only 1 day” value (liver sulfatase; 1 day, from about 164) was “about 8” and the “% Inhibition of brain sulfatase” value (brain sulfatase; 1 Day) was 14.8%. For the same molecule, the “Brain Sulfatase Activity” value (brain sulfatase; 1 Day) was 2.76 ± 0.27 pg E1 S/μg protein/hr, the “Brain Sulfatase Activity” value (brain sulfatase; 15 Days) was 0.48 ± 0.10 pg E1 S/μg protein/hr and the crossover latency ([1]; DU-14 alone 30 mg/Kg IP daily for 15 days before acquisition trial, scopolamine) was 278.7±88.1. For the same molecule, the “reversal of scopolamine-induced amnesia” value ([1]; DU-14 alone daily for 15 days, 30 mg/Kg IP) was “significant (p≤0.05) reversal of scopolamine-induced amnesia”, the “crossover latency” value ([1]; DU-14 alone, single dose 30 mg/Kg IP four hours before acquisition trial) was “failed to increase crossover latency” and the “crossover latency, overall conclusion” value ([1]; summary of Example III) was “significant increase in crossover latency”.

`C[C@]12CC[C@H](OS(=O)(=O)O)CC1=CC[C@@H]1[C@@H]2CC[C@]2(C)C(=O)CC[C@@H]12` [DHEAS, dehydroepiandrosterone sulfate, reference compound] was tested, and the maximum crossover latency ([1]; DHEAS 20 mg/Kg IP one hour before acquisition trial, scopolamine 1 mg/Kg IP 30 minutes before) was 262.5 ± 84.6 s and the “reversal of scopolamine-induced amnesia” value ([1]; DHEAS 5-70 mg/kg IP one hour before acquisition trial, bell shaped dose response curve) was “significant (p≤0.05), reversal of scopolamine-induced amnesia”.
